Reference: patent US8703736B2, “Therapeutic target for pancreatic cancer cells” (The Translational Genomics Research Institute, priority 2011, dated 2014)
Where two headings read alike, the source gives them in different places.

Columns and labels:
[1] = system: Su8686; test: Drug dose-response curves, cell proliferation, Su8686; format: cell-based; conditions: Homo sapiens
Description: (§1) Efficacy of ROCK inhibition evaluated by drug dose-response curves: The small molecule ROCK1 inhibitors, fasudil and Y27632, were analyzed for their effects in pancreatic cancer cell lines. Drug dose-response curves were created to assess the efficacy of ROCK inhibition at 72 hours of drug exposure. FIG. 5A presents the drug dose-response curves for fasudil exposure in MiaPaca, Su8686, Panc-1 and CW1 cell line cells. FIG. 5B presents the drug dose-response curves for Y-27632 exposure in the same above mentioned cell lines. Gemcitabine, a nucleoside analog, replaces one of the building blocks, cytidine, during DNA replication and thus arrests tumor growth, which leads to cell death. Gemcitabine is shown for reference as illustrated in FIG. 5C.

[2] = system: Panc-1; test: Drug dose-response curves, cell proliferation, Panc-1; format: cell-based; conditions: Homo sapiens, read-out: cell proliferation, IC50 values
Description: as §1

[3] = system: MiaPaca2; test: Drug dose-response curves, cell proliferation, MiaPaca2; format: cell-based; conditions: Homo sapiens, read-out: ROCK1 inhibition, IC50 values
Description: as §1

[4] = system: CW1; test: Drug dose-response curves, cell proliferation, CW1; format: cell-based; conditions: Homo sapiens, read-out: ROCK1 inhibition, IC50 values
Description: as §1

[5] = system: PDA cell proliferation; test: Inhibition of PDA cell proliferation (summary over cell lines); format: cell-based; conditions: Homo sapiens; range over cell lines of TABLE 2; 72 hours; read-out: IC50s range, inhibition of PDA cell proliferation
Description: as §1

[6] = system: Panc-1 cells; test: Modified Boyden Chamber Assay, cell migration; format: cell-based, human; conditions: at both 500 μM and 20 μM
[7] = system: Panc-1 cells; test: SRB (Sulphorhodamine) cell viability assay with fasudil; format: cell-based, human
Description: To further study the effects of fasudil at these concentrations on growth, an SRB (Sulphorhodamine) cell viability assay was performed. […] In both FIGS. 6A and 6B, “UT” stands for untreated; and “SFM” stands for serum-free media.

[8] = system: co-culture of human pancreatic cancer-derived myofibroblasts and SU8686 cells; test: Co-culture stained for aSMA and collagen 1 (FIG. 7); format: cell-based; conditions: 72 hours
[9] = system: collagen 1 in CW1 myofibroblasts and SU8686 cells; test: Collagen 1 expression in single and co-cultures, dot blot (FIG. 8); format: cell-based, human
Description: Fasudil reduces collagen synthesis in co-cultured pancreatic cells: The effects of fasudil on the expression of collagen 1 in single and co-cultures of human myofibroblasts and SU8686 cells were examined. These cells were seeded and then treated with fasudil for 72 hours at the concentrations indicated. Treatment conditions are shown at top of the figure panel, and standard curve concentrations are shown below the figure panel (FIG. 8A). Calibrated collagen concentrations were shown in FIG. 8B (20 μg total protein loaded per sample). […] Fasudil inhibits collagen expression in cultured human stellate cells: The analysis of collagen expression in cultured human stellate cells exposed to Fasudil was carried out using quantitative PCR analysis of Collagen 1 mRNA levels.

[10] = system: Collagen 1 mRNA in cultured human stellate cells; test: Quantitative PCR analysis of Collagen 1 mRNA levels (FIG. 11); format: cell-based; conditions: highest concentration of fasudil (100 μm)
Description: Fasudil inhibits collagen expression in cultured human stellate cells: The analysis of collagen expression in cultured human stellate cells exposed to Fasudil was carried out using quantitative PCR analysis of Collagen 1 mRNA levels.

[11] = system: co-culture of human pancreatic cancer-derived fibroblasts and SU8686 cells; test: Co-culture stained for cytokeratin and αSMA (FIG. 12); format: cell-based; conditions: 72 hours
Source text: Fasudil inhibits stellate cell proliferation and function: The effects of fasudil on the proliferation and expansion of the stromal compartment in a co-culture of human pancreatic cancer-derived fibroblasts and SU8686 cells were compared. […] Subsequently, cells were fixed and stained for the epithelial cell marker, cytokeratin, in green, and αSMA, in red.

[12] = SU.86.86, Su8686 cell line, 72 hours of drug exposure, read-out: ROCK1 inhibition, IC50 values
[13] = Panc-1 cell line, 72 hours of drug exposure, read-out: ROCK1 inhibition, IC50 values
[14] = MIA PaCa-2, MiaPaca2 cell line, 72 hours of drug exposure
[15] = CW1 cell line, 72 hours of drug exposure

Row | IC50 [2, 13] | IC50 [3, 14] | SMILES | IC50 [1, 12] | IC50 [4, 15] | IC50 [5] | migrating cells relative to serum (chemoattractant) containing media control [6] | cytotoxicity ([7]; 20 μM) | cell survival ([7]; 500 μM, 24 hours) | inhibition of aSMA and collagen 1 expressing myofibroblasts ([8]; 50 μM, 25 μM, and 12 μM) | cell proliferation of both cancer cells and myofibroblasts relative to untreated ([8]; 100 μM) | collagen synthesis relative to the untreated sample ([9]; 100 μM, 50 μM, and 25 μM, 72 hours) | collagen expression, dot blot on protein lysates ([9]; monocultured stellate cells (CW1) and co-cultured tumor/stellate cells (CW1/SU8686), 6-100 μm) | collagen expression (Collagen 1 mRNA) [10] | inhibition of aSMA expressing cells (stellate cells) ([11]; 50 μM, 25 μM, and 12 μM) | cell proliferation of both cancer cells and stellate cells relative to untreated ([11]; 100 μM) | IC50 ([1]; SU.86.86, 72 h) | IC50 ([2]; PANC-1, 72 h) | IC50 ([3]; MIA PaCa-2, 72 h) | IC50 ([4]; 72 h)
1 | > 100 µM | 55 µM | O=S(=O)(c1cccc2cnccc12)N1CCCNCC1 [Fasudil, 5-(1,4-diazepan-1-ylsulfonyl)isoquinoline] | 71.2 µM | 66 µM | 6 to 71 µM | significant reduction in migrating cells | no significant cytotoxicity | 50.3% | selectively inhibited | significant reduction in cell proliferation | significant reduction in collagen synthesis | Decreased collagen expression | three-fold decrease in collagen expression | selectively inhibited | significant reduction in cell proliferation | – | – | – | –
2 | > 100 µM | 0.056 µM | Nc1ccn([C@@H]2O[C@H](CO)[C@@H](O)C2(F)F)c(=O)n1 [Gemcitabine] | 0.017 µM | > 100 µM | – | – | – | – | – | – | – | – | – | – | – | – | – | – | –
3 | – | – | CC(N)C1CCC(C(=O)Nc2ccncc2)CC1 (stereo not drawn) [Y27632, 4-(1-aminoethyl)-N-pyridin-4-yl-cyclohexane-1-carboxamide] | – | – | 6 to 71 µM | – | – | – | – | – | – | – | – | – | – | 27.9 µM | > 100 µM | 6.8 µM | 6.4 µM
